Results as given in patent US20220056018A1, “SREBP INHIBITORS COMPRISING A THIOPHENE CENTRAL RING” (Capulus Therapeutics, LLC, priority 2019, published 2022).

Legend:
Test in all cases: Cancer cell growth inhibition
Assay type in all cases: cell-based
BT20 = details: Homo sapiens, BT-20; BT20 (breast), 72 hr treatment
Protocol: (§1) The ability of select compounds to inhibit cell growth in various cancer cell lines are evaluated. […] The cell lines shown in Table 2 have reduced growth by at least 50% at 10 uM or lower over 72 hr treatment in growth media. The cell lines shown in Table 3 have reduced growth by at least 50% with an IC50 greater than 10 uM.
(§2) Six 10-fold compound dilutions are prepared in DMSO (e.g. 10 mM, 1 mM, 100 uM, 10 uM, 1 uM, and 0.1 uM). Single data points are acquired for each concentration. The final concentration of DMSO is 0.1%. The duration of the treatment is 72 hr. Growth inhibition is measured using Sulforhodamine B in a protein staining assay. Activity of the agents is determined by evaluation the following parameters: IC50, GI50, IC10, TGI, LC50, IC90, and GI90 (where these values can be calculated).

RD = details: Homo sapiens; RD (muscle), 72 hr treatment
Protocol: as §1, §2

SKNSH = details: Homo sapiens, SK-N-SH; SKNSH (brain), 72 hr treatment
Protocol: as §1, §2

PANC1005 = details: Homo sapiens; PANC1005 (pancreas), 72 hr treatment
Protocol: as §1, §2

SU-DHL-10 = details: Homo sapiens, SU-DHL10; SU-DHL-10 (hematological), 72 hr treatment
Protocol: as §1, §2

MDAMB435 = details: Homo sapiens, MDA-MB-435; MDAMB435 (skin), 72 hr treatment
Protocol: as §1, §2

PANC1 = details: Homo sapiens, PANC-1; PANC1 (pancreas), 72 hr treatment
Protocol: as §1, §2

LOVO = details: Homo sapiens; LOVO (colon), 72 hr treatment
Protocol: as §1, §2

TE671 = details: Homo sapiens, TE-671; TE671 (muscle), 72 hr treatment
Protocol: as §1, §2

NCIH358M = details: NCI-H358M; NCIH358M (lung), 72 hr treatment
Protocol: as §1, §2

RDES = details: RD-ES; RDES (bone), 72 hr treatment
Protocol: as §1, §2

U87MG = details: Homo sapiens, U-87 MG; U87MG (brain), 72 hr treatment
Protocol: as §1, §2

COLO205 = details: Homo sapiens, COLO 205; COLO205 (colon), 72 hr treatment
Protocol: as §1, §2

HCT15 = details: Homo sapiens, HCT-15; HCT15 (colon), 72 hr treatment
Protocol: as §1, §2

IGROV1 = details: Homo sapiens, IGROV-1; IGROV1 (ovary), 72 hr treatment
Protocol: as §1, §2

5637 = 5637 (bladder), 72 hr treatment
Protocol: as §1, §2

CASKI = details: Homo sapiens, Ca-Ski; CASKI (endometrial), 72 hr treatment
Protocol: as §1, §2

HS578T = details: Homo sapiens, Hs-578T; HS578T (breast), 72 hr treatment
Protocol: as §1, §2

MDAMB231 = details: Homo sapiens, MDA-MB-231; MDAMB231 (breast), 72 hr treatment
Protocol: as §1, §2

MHHES1 = details: Homo sapiens, MHH-ES-1; MHHES1 (bone), 72 hr treatment
Protocol: as §1, §2

ACHN = details: Homo sapiens; ACHN (kidney), 72 hr treatment
Protocol: as §1, §2

SKHEP1 = details: Homo sapiens, SK-HEP1; SKHEP1 (liver), 72 hr treatment
Protocol: as §1, §2

PC3 = details: Homo sapiens, PC-3; PC3 (prostate), 72 hr treatment
Protocol: as §1, §2

HEK293 = details: Homo sapiens; HEK293 (kidney), 72 hr treatment
Protocol: as §1, §2

CACO2 = details: Homo sapiens, Caco-2; CACO2 (colon), 72 hr treatment
Protocol: as §1, §2

NCIH82 = details: Homo sapiens, NCI-H82; NCIH82 (lung), 72 hr treatment
Protocol: as §1, §2

WSU-NHL = details: Homo sapiens; WSU-NHL (hematological), 72 hr treatment
Protocol: as §1, §2

JEG3 = details: Homo sapiens, JEG-3; JEG3 (placenta), 72 hr treatment
Protocol: as §1, §2

MIAPACA2 = details: Homo sapiens, MIA PaCa-2; MIAPACA2 (pancreas), 72 hr treatment
Protocol: as §1, §2

MINO = details: Homo sapiens; MINO (hematological), 72 hr treatment
Protocol: as §1, §2

CC(C)(CO)c1cc(-c2csc(-c3ccc(NS(C)(=O)=O)cc3Cl)c2)ccn1 [Compound I-8909, N-(3-chloro-4-(4-(2-(1-hydroxy-2-methylpropan-2-yl)pyridin-4-yl)thiophen-2-yl)phenyl)methanesulfonamide]
IC50 (BT20): > 10 µM
IC50 (RD): > 10 µM
IC50 (SKNSH): < 10 µM
IC50 (PANC1005): < 10 µM
IC50 (SU-DHL-10): < 10 µM
IC50 (MDAMB435): > 10 µM
IC50 (PANC1): < 10 µM
IC50 (LOVO): < 10 µM
IC50 (TE671): < 10 µM
IC50 (NCIH358M): < 10 µM
IC50 (RDES): > 10 µM
IC50 (U87MG): > 10 µM
IC50 (COLO205): < 10 µM
IC50 (HCT15): > 10 µM
IC50 (IGROV1): > 10 µM
IC50 5637: < 10 µM
IC50 (CASKI): > 10 µM
IC50 (HS578T): > 10 µM
IC50 (MDAMB231): > 10 µM
IC50 (MHHES1): < 10 µM
IC50 (ACHN): < 10 µM
IC50 (SKHEP1): < 10 µM
IC50 (PC3): > 10 µM
IC50 (HEK293): < 10 µM
IC50 (CACO2): < 10 µM
IC50 (NCIH82): < 10 µM
IC50 (WSU-NHL): < 10 µM
IC50 (JEG3): < 10 µM
IC50 (MIAPACA2): > 10 µM
IC50 (MINO): < 10 µM

CC(C)(O)Cc1cc(-c2csc(-c3ccc(NS(C)(=O)=O)cc3Cl)c2)ccn1 [Compound I-9004, N-(3-chloro-4-(4-(2-(2-hydroxy-2-methylpropyl)pyridin-4-yl)thiophen-2-yl)phenyl)methanesulfonamide]
IC50 (BT20): > 10 µM
IC50 (RD): > 10 µM
IC50 (SKNSH): < 10 µM
IC50 (PANC1005): < 10 µM
IC50 (SU-DHL-10): < 10 µM
IC50 (MDAMB435): < 10 µM
IC50 (PANC1): < 10 µM
IC50 (LOVO): < 10 µM
IC50 (TE671): < 10 µM
IC50 (NCIH358M): < 10 µM
IC50 (RDES): > 10 µM
IC50 (U87MG): > 10 µM
IC50 (COLO205): < 10 µM
IC50 (HCT15): < 10 µM
IC50 (IGROV1): > 10 µM
IC50 5637: > 10 µM
IC50 (CASKI): > 10 µM
IC50 (HS578T): > 10 µM
IC50 (MDAMB231): > 10 µM
IC50 (MHHES1): < 10 µM
IC50 (ACHN): < 10 µM
IC50 (SKHEP1): < 10 µM
IC50 (PC3): > 10 µM
IC50 (HEK293): < 10 µM
IC50 (CACO2): < 10 µM
IC50 (NCIH82): < 10 µM
IC50 (WSU-NHL): < 10 µM
IC50 (JEG3): < 10 µM
IC50 (MIAPACA2): > 10 µM
IC50 (MINO): < 10 µM

CS(=O)(=O)Nc1ccc(-c2cc(-c3ccnc4c3OCCO4)cs2)c(Cl)c1 [Compound I-9017, N-(3-chloro-4-(4-(2,3-dihydro-[1,4]dioxino[2,3-b]pyridin-8-yl)thiophen-2-yl)phenyl)methanesulfonamide]
IC50 (BT20): < 10 µM
IC50 (RD): > 10 µM
IC50 (SKNSH): < 10 µM
IC50 (PANC1005): > 10 µM
IC50 (SU-DHL-10): < 10 µM
IC50 (MDAMB435): > 10 µM
IC50 (PANC1): < 10 µM
IC50 (LOVO): < 10 µM
IC50 (TE671): < 10 µM
IC50 (NCIH358M): < 10 µM
IC50 (RDES): < 10 µM
IC50 (U87MG): < 10 µM
IC50 (COLO205): < 10 µM
IC50 (HCT15): > 10 µM
IC50 (IGROV1): < 10 µM
IC50 5637: < 10 µM
IC50 (CASKI): > 10 µM
IC50 (HS578T): > 10 µM
IC50 (MDAMB231): > 10 µM
IC50 (MHHES1): < 10 µM
IC50 (ACHN): < 10 µM
IC50 (SKHEP1): < 10 µM
IC50 (PC3): > 10 µM
IC50 (HEK293): < 10 µM
IC50 (CACO2): < 10 µM
IC50 (NCIH82): < 10 µM
IC50 (WSU-NHL): < 10 µM
IC50 (JEG3): < 10 µM
IC50 (MIAPACA2): < 10 µM
IC50 (MINO): < 10 µM
